According to patent US9993522B2, “Treatment of pain by inhibition of USP5 de-ubiquitinase” (UTI LIMITED PARTNERSHIP, priority 2012, dated 2018):
Residues, ends and D or L forms follow the SMILES beside them. *: point of attachment. Cbz = O=C(OCc1ccccc1)*

Tests used:
Cav3.2 channels [1] = experiment: Cav3.2 ubiquitination in cultured mouse DRG neurons (immunoprecipitation, anti-ubiquitin western blot); type: cell-based; details: 5 μM MG132 overnight
Cav3.2 channels [2] = experiment: Ubiquitination state of Cav3.2 channels in CAD cells with proteasomal inhibitor (western blot densitometry); type: cell-based; details: 5 μM MG132, CAD cells, mean±SEM
Method: Human embryonic kidney tsA-201 cells were cultured as described previously (Altier et al., 2006). Cells were transfected with calcium phosphate and used for biochemical analysis 72 hrs post-transfection. Neuronal derived CAD cells were cultured as described previously (Altier et al., 2011). These cells were transfected with Lipofectamine 2000 (Invitrogen) and used for biochemical and electrophysiological experiments 48-72 hrs post-transfection. Both tsA-201 and CAD cells were preincubated with 5 μM MG132 (MG) or 100 μM Chloroquine (Chl) overnight.
Cells were lysed in RIPA buffer (in mM; 50 Tris, 100 NaCl, 1% triton X-100, 1% NP-40, 0.2% SDS, 0.1% NaDeoxycholate, 20 NaF, 10 Na4P2O7 pyrophosphate, 10 EDTA+protease inhibitor cocktail, pH 7.5). A modified RIPA buffer (in mM; 50 Tris, 100 NaCl, 0.2% (v/v) triton X-100, 0.2% (v/v) NP-40, 10 EDTA+protease inhibitor cocktail, with or without 5 μM MG132 pH 7.5) was used to co-immunoprecipitate Cav3.2 channels with USP5 protein. Lysates from tsA-201, CAD cells and rat brain tissue were prepared by sonicating samples at 60% pulse for 10 seconds and by centrifugation at 13,000 rpm for 15 minutes at 4° C. […] Western blot quantification was performed using densitometry analysis (Quantity One-BioRad software). […]

[3] = 10.0 μg/i.t.
Description: Injections were given to fully conscious mice using the method described by Hylden and Wilcox (Hylden & Wilcox, 1980). Animals were manually restrained, the dorsal fur of each mouse was shaved, the spinal column was arched, and a 30-gauge needle attached in a PE20 Polyethylene tube to a 25-μl Hamilton microsyringe (Hamilton, Birmingham, UK) was inserted into the subdural space between the L4 and L5 vertebrae. Correct i.t. positioning of the needle tip was confirmed by a characteristic tail-flick response of animal. Intrathecal injections of volumes between 2-10 μl were given over a period between 5-10 seconds.

CFA-injected mice = experiment: CFA-induced persistent inflammatory pain, mechanical hyperalgesia; details: acute delivery, 10.0 μg/i.t.
Method: Mechanical hyperalgesia was measured using the digital plantar aesthesiometer (DPA, UgoBasile, Varese, Italy). […] Mice were allowed to acclimate for a period of at least 90 minutes. The DPA device was positioned beneath the animal, so that the filament was directly under the plantar surface of the ipsilateral hind paw. Each paw was tested three times per session.

CC(C)C[C@@H](C=O)NC(=O)[C@H](CC(C)C)NC(=O)[C@H](CC(C)C)NC(=O)OCc1ccccc1 [MG132] (Cbz-Leu-Leu-Leu-aldehyde)
Cav3.2 ubiquitination signal (Cav3.2 channels [1]): only from immunoprecipitates from cells treated with 5 μM MG132
ratio of ubiquitinated vs non-ubiquitinated channels (Ub-Cav3.2 channels/Cav3.2 channels), higher MW band (b) (Cav3.2 channels [2]; n=4): 2.80±0.5
ratio of ubiquitinated vs non-ubiquitinated channels (Ub-Cav3.2 channels/Cav3.2 channels), lower MW band (a) (Cav3.2 channels [2]; n=5): 3.2±1.1

CC(C)C[C@H](NC(=O)[C@H](CCCNC(=N)N)NC(=O)[C@H](CCCNC(=N)N)NC(=O)[C@H](CC(C)C)NC(=O)[C@H](CCCNC(=N)N)NC(=O)[C@H](CCCCN)NC(=O)[C@H](CCC(=O)O)NC(=O)[C@H](CCC(=O)O)NC(=O)[C@H](CCCNC(=N)N)NC(=O)[C@H](CCCNC(=N)N)NC(=O)[C@H](CCCNC(=N)N)NC(=O)[C@H](C)NC(=O)[C@H](CCC(=O)O)NC(=O)[C@H](CCCNC(=N)N)NC(=O)[C@H](CCCNC(=N)N)NC(=O)[C@H](CCCNC(=N)N)NC(=O)[C@H](CCC(N)=O)NC(=O)[C@H](CCCNC(=N)N)NC(=O)[C@H](CCCNC(=N)N)NC(=O)[C@H](CCCCN)NC(=O)[C@H](CCCCN)NC(=O)[C@H](CCCNC(=N)N)NC(=O)CNC(=O)[C@@H](N)Cc1ccc(O)cc1)C(=O)N[C@@H](CCC(=O)O)C(=O)N[C@@H](CCCNC(=N)N)C(=O)N[C@@H](CCCNC(=N)N)C(=O)N[C@@H](CCCNC(=N)N)C(=O)N[C@@H](CCCNC(=N)N)C(=O)N[C@@H](CCCCN)C(=O)N[C@@H](C)C(=O)N[C@@H](CCC(N)=O)C(=O)O [Tat-3.2-III-IV linker peptide] (H-YGRKKRRQRRREARRREEKRLRRLERRRRKAQ-OH)
abnormal behavior ([3]; 2.5 μg/μl over 10 seconds): no abnormal behavior was observed
mice that developed shaking behavior ([3]; 5 μg/μl over 5 seconds): 3 out of 10
time to termination of shaking behavior after injection ([3]; 5 μg/μl over 5 seconds): ≤ 15 min

COCC(=O)O[C@]1(CCN(C)CCCc2nc3ccccc3[nH]2)CCc2cc(F)ccc2[C@@H]1C(C)C [mibefradil]
pain in the CFA model (mechanical withdrawal threshold) (CFA-injected mice): significantly attenuate pain in the CFA model
